These results are taken from US12226409B2, “Treatment of hepatocellular carcinoma” (Eisai R&D Management Co., Ltd., priority 2017, dated 2025).

The target of one data set is T1, CYP1A2 (Homo sapiens, UniProt P05177).
T1 sequence (P05177 1-516): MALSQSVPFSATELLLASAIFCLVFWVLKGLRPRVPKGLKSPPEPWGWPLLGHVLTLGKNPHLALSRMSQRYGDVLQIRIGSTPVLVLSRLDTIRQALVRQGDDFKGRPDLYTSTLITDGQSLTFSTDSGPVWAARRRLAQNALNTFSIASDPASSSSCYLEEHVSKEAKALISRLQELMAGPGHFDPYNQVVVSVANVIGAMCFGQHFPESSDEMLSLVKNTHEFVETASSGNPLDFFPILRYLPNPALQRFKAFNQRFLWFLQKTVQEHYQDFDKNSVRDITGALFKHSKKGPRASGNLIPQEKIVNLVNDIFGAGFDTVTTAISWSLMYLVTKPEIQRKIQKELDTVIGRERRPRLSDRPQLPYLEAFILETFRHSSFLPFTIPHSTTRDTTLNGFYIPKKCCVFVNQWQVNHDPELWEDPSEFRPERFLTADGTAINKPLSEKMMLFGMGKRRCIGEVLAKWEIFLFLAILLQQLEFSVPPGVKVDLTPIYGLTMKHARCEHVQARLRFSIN
In words: In vitro CYP inhibition. It counts as in vitro ADME.

Another data set deals with CYP2D6 (Homo sapiens, UniProt P10635). In words: In vitro CYP inhibition. It counts as in vitro ADME.
The subject of the next data set is CYP3A. In words: In vitro CYP induction. Format: in vitro ADME.
Data set [1] relates to patients with unresectable HCC. The conditions noted are these: human, in vivo.
Description: Randomization was stratified according to region (Asia-Pacific or Western regions), macroscopic portal vein invasion and/or extrahepatic spread (yes or no), Eastern Cooperative Oncology Group performance status (0 or 1), and body weight (<60 kg or ≥60 kg).
Safety assessments included recording of vital signs, hematologic and biochemical laboratory testing, urinalysis, and electrocardiography.

Sequence of CYP2D6 (P10635 whole entry): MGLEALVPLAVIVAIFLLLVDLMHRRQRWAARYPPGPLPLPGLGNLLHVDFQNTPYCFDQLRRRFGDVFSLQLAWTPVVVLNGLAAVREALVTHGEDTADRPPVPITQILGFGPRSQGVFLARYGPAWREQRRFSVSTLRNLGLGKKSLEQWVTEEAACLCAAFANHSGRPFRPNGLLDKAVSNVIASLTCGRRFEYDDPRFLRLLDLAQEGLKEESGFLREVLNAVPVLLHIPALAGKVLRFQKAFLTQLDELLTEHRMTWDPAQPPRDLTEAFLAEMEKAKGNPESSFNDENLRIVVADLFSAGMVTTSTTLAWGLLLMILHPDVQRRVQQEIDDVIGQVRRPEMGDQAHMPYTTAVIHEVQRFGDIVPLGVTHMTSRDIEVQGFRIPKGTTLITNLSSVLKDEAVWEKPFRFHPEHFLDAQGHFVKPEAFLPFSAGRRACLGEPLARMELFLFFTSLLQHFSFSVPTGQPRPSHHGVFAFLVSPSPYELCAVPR

Consider `COc1cc2nccc(Oc3ccc(NC(=O)NC4CC4)c(Cl)c3)c2cc1C(N)=O` [Lenvatinib, 4-(3-chloro-4(cyclopropylaminocarbonyl)aminophenoxy)-7-methoxy-6-quinolinecarboxamide], for which the “inhibition of CYP1A2” value at CYP1A2 is reported as “inhibits”. At CYP2D6, the “inhibition of CYP2D6” value is “inhibits”. The “induction of CYP3A” value with CYP3A is “induces”. Also, in data set [1], the “treatment-related fatal cerebral hemorrhage” value stood at 3 patients, the “treatment-related fatal hepatic failure” value is recorded as 3 patients and the “treatment-related fatal respiratory failure” value worked out at 2 patients.
